In the NIST ThermoML archive (doi:10.1021/je100581m):
Where “and” joins values, the source holds several entries; their conditions need not be identical. Identical values can stand only once.

How the values were obtained:
[1] = xn = mol fraction of the nth substance listed; details: Liquid, Vibrating tube method, x1 = 1
[2] = Liquid, Vibrating tube method

CCO [ethanol] + C=CC(C)(O)CCC=C(C)C
mass density [kg/m3], [1]
Details | 100 kPa | 5000 kPa | 10000 kPa | 15000 kPa | 20000 kPa
283.15 K | 797.7 | 801.8 | 805.6 | 809.6 | 813.1
298.15 K | 784.9 | 789.3 | 793.6 | 797.7 | 801.6
313.15 K | 771.9 | 776.8 | 781.3 | 785.7 | 789.9
328.15 K | 758.6 | 763.8 | 768.9 | 773.6 | 778.1

CC(C)O [propan-2-ol] + C=CC(C)(O)CCC=C(C)C
mass density [kg/m3], [1]
Details | 283.15 K | 283.18 K | 298.15 K | 313.15 K | 328.15 K | 328.18 K
100 kPa | 793.7 | – | 781.2 | 768.1 | 754.4 | –
5000 kPa | 797.5 | – | 785.5 | 773 | 759.6 | –
10000 kPa | 801.3 | – | 789.7 | 777.5 | – | 764.8
15000 kPa | – | 805.2 | 793.8 | 781.9 | 769.5 | –
20000 kPa | 808.9 | – | 797.6 | 786.1 | 774 | –

CCCO [propan-1-ol]
mass density [kg/m3], [2]
Details | 100 kPa | 5000 kPa | 10000 kPa | 15000 kPa | 20000 kPa
283.15 K | 810.9 | 814.7 | 818.1 | 821.7 | 824.9
298.15 K | 799 | 803 | 806.9 | 810.6 | 814.1
313.15 K | 786.8 | 791.2 | 795.3 | 799.3 | 803.1
328.15 K | 774.5 | 779.1 | 783.7 | 787.8 | 791.9

CC(C)O [propan-2-ol]
mass density [kg/m3], [2]
Details | 283.15 K | 283.18 K | 298.15 K | 313.15 K | 328.15 K | 328.18 K
100 kPa | 793.7 | – | 781.2 | 768.1 | 754.4 | –
5000 kPa | 797.5 | – | 785.5 | 773 | 759.6 | –
10000 kPa | 801.3 | – | 789.7 | 777.5 | – | 764.8
15000 kPa | – | 805.2 | 793.8 | 781.9 | 769.5 | –
20000 kPa | 808.9 | – | 797.6 | 786.1 | 774 | –

CCCO [propan-1-ol] + C=CC(C)(O)CCC=C(C)C
mass density [kg/m3], [1]
Details | 100 kPa | 5000 kPa | 10000 kPa | 15000 kPa | 20000 kPa
283.15 K | 810.9 | 814.7 | 818.1 | 821.7 | 824.9
298.15 K | 799 | 803 | 806.9 | 810.6 | 814.1
313.15 K | 786.8 | 791.2 | 795.3 | 799.3 | 803.1
328.15 K | 774.5 | 779.1 | 783.7 | 787.8 | 791.9

C=CC(C)(O)CCC=C(C)C (configuration not stated) [3,7-dimethyl-1,6-octadien-3-ol]
mass density, [2]
Details | 283.15 K | 283.18 K | 298.15 K | 313.15 K | 328.15 K | 328.18 K
100 kPa | 869.2 kg/m3 and 869.5 kg/m3 | – | 856.9 kg/m3 and 857.3 kg/m3 | 844.1 kg/m3 and 844.5 kg/m3 | 831.3 kg/m3 and 831.7 kg/m3 | –
5000 kPa | 872.3 kg/m3 and 872.6 kg/m3 | – | 860.1 kg/m3 and 860.6 kg/m3 | 847.8 kg/m3 and 848.2 kg/m3 | 835.2 kg/m3 and 835.6 kg/m3 | –
10000 kPa | 875.2 kg/m3 and 875.7 kg/m3 | – | 863.5 kg/m3 and 863.9 kg/m3 | 851.3 kg/m3 and 851.6 kg/m3 | 839.1 kg/m3 and 839.5 kg/m3 | 839.5 kg/m3
15000 kPa | 878.2 kg/m3 and 878.7 kg/m3 | 878.7 kg/m3 | 866.6 kg/m3 and 867 kg/m3 | 854.8 kg/m3 and 855 kg/m3 | 842.7 kg/m3 and 843.1 kg/m3 | –
20000 kPa | 881 kg/m3 and 881.5 kg/m3 | – | 869.6 kg/m3 and 870 kg/m3 | 858.1 kg/m3 and 858.4 kg/m3 | 846.3 kg/m3 and 846.7 kg/m3 | –

CCO [ethanol]
mass density [kg/m3], [2]
Details | 100 kPa | 5000 kPa | 10000 kPa | 15000 kPa | 20000 kPa
283.15 K | 797.7 | 801.8 | 805.6 | 809.6 | 813.1
298.15 K | 784.9 | 789.3 | 793.6 | 797.7 | 801.6
313.15 K | 771.9 | 776.8 | 781.3 | 785.7 | 789.9
328.15 K | 758.6 | 763.8 | 768.9 | 773.6 | 778.1
